From PubChem BioAssay (NCI)
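These data come from cells grown in 96-well plates and exposed to compound for 48 hours at five concentrations. At the GI50, growth is halved. TGI is the concentration that stops growth completely.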

How the values were obtained:
Assay in all cases: NCI tumour cell line growth inhibition, 48 h
786-0 renal = system: 786-0 renal
A498 renal = system: A498 renal
A549 NSCLC = system: A549 NSCLC
ACHN renal = system: ACHN renal
BT-549 breast = system: BT-549 breast
CAKI-1 renal = system: CAKI-1 renal
CCRF-CEM leukemia = system: CCRF-CEM leukemia
COLO 205 colon = system: COLO 205 colon
DU-145 prostate = system: DU-145 prostate
EKVX NSCLC = system: EKVX NSCLC
HCC-2998 colon = system: HCC-2998 colon
HCT-116 colon = system: HCT-116 colon
HCT-15 colon = system: HCT-15 colon
HL-60(TB) leukemia = system: HL-60(TB) leukemia
HOP-62 NSCLC = system: HOP-62 NSCLC
HOP-92 NSCLC = system: HOP-92 NSCLC
HS 578T breast = system: HS 578T breast
HT29 colon = system: HT29 colon
IGROV1 ovarian = system: IGROV1 ovarian
K-562 leukemia = system: K-562 leukemia
KM12 colon = system: KM12 colon
LOX IMVI melanoma = system: LOX IMVI melanoma
M14 melanoma = system: M14 melanoma
MALME-3M melanoma = system: MALME-3M melanoma
MCF7 breast = system: MCF7 breast
MDA-MB-231 breast = system: MDA-MB-231 breast
MDA-MB-435 = system: MDA-MB-435
MOLT-4 leukemia = system: MOLT-4 leukemia
NCI-H226 lung = system: NCI-H226 lung
NCI-H23 lung = system: NCI-H23 lung
NCI-H460 lung = system: NCI-H460 lung
NCI-H522 lung = system: NCI-H522 lung
NCI/ADR-RES ovarian = system: NCI/ADR-RES ovarian
OVCAR-3 ovarian = system: OVCAR-3 ovarian
OVCAR-4 ovarian = system: OVCAR-4 ovarian
OVCAR-5 ovarian = system: OVCAR-5 ovarian
OVCAR-8 ovarian = system: OVCAR-8 ovarian
PC-3 prostate = system: PC-3 prostate
RPMI-8226 leukemia = system: RPMI-8226 leukemia
RXF 393 renal = system: RXF 393 renal
SF-268 CNS = system: SF-268 CNS
SF-295 CNS = system: SF-295 CNS
SF-539 CNS = system: SF-539 CNS
SK-MEL-2 melanoma = system: SK-MEL-2 melanoma
SK-MEL-28 melanoma = system: SK-MEL-28 melanoma
SK-MEL-5 melanoma = system: SK-MEL-5 melanoma
SK-OV-3 ovarian = system: SK-OV-3 ovarian
SN12C renal = system: SN12C renal
SNB-19 CNS = system: SNB-19 CNS
SNB-75 CNS = system: SNB-75 CNS
SR leukemia = system: SR leukemia
SW-620 colon = system: SW-620 colon
T-47D breast = system: T-47D breast
TK-10 renal = system: TK-10 renal
U251 CNS = system: U251 CNS
UACC-257 melanoma = system: UACC-257 melanoma
UACC-62 melanoma = system: UACC-62 melanoma
UO-31 renal = system: UO-31 renal

CC1(C)CNc2cc(NC(=O)c3cccnc3NCc3ccncc3)ccc21
GI50 (786-0 renal): 45.1 µM | TGI (786-0 renal): > 100 µM | GI50 (A498 renal): 12.5 µM | TGI (A498 renal): > 79.7 µM | GI50 (A549 NSCLC): 31.9 µM | TGI (A549 NSCLC): > 100 µM | GI50 (ACHN renal): 10.6 µM | TGI (ACHN renal): > 100 µM | GI50 (BT-549 breast): 25.2 µM | TGI (BT-549 breast): 98.2 µM | GI50 (CAKI-1 renal): 21.1 µM | TGI (CAKI-1 renal): > 100 µM | GI50 (CCRF-CEM leukemia): 23.7 µM | TGI (CCRF-CEM leukemia): > 100 µM | GI50 (COLO 205 colon): 34.2 µM | TGI (COLO 205 colon): > 100 µM | GI50 (DU-145 prostate): 23 µM | TGI (DU-145 prostate): > 100 µM | GI50 (EKVX NSCLC): 23.6 µM | TGI (EKVX NSCLC): > 95.2 µM | GI50 (HCC-2998 colon): 39 µM | TGI (HCC-2998 colon): > 100 µM | GI50 (HCT-116 colon): 34.3 µM | TGI (HCT-116 colon): > 100 µM | GI50 (HCT-15 colon): 22.2 µM | TGI (HCT-15 colon): > 87.7 µM | GI50 (HL-60(TB) leukemia): 28 µM | TGI (HL-60(TB) leukemia): 81.5 µM | GI50 (HOP-62 NSCLC): 50.9 µM | TGI (HOP-62 NSCLC): > 100 µM | GI50 (HOP-92 NSCLC): 19.4 µM | TGI (HOP-92 NSCLC): 80.6 µM | GI50 (HS 578T breast): 26.8 µM | TGI (HS 578T breast): > 100 µM | GI50 (HT29 colon): 32.2 µM | TGI (HT29 colon): > 100 µM | GI50 (IGROV1 ovarian): 19.9 µM | TGI (IGROV1 ovarian): > 84.2 µM | GI50 (K-562 leukemia): 19.9 µM | TGI (K-562 leukemia): > 100 µM | GI50 (KM12 colon): 38 µM | TGI (KM12 colon): > 100 µM | GI50 (LOX IMVI melanoma): 23.3 µM | TGI (LOX IMVI melanoma): > 100 µM | GI50 (M14 melanoma): 20.2 µM | TGI (M14 melanoma): 88.6 µM | GI50 (MALME-3M melanoma): 15.9 µM | TGI (MALME-3M melanoma): 84.9 µM | GI50 (MCF7 breast): 23 µM | TGI (MCF7 breast): > 100 µM | GI50 (MDA-MB-231 breast): 29.2 µM | TGI (MDA-MB-231 breast): > 100 µM | GI50 (MDA-MB-435): 26.1 µM | TGI (MDA-MB-435): > 100 µM | GI50 (MOLT-4 leukemia): 23.8 µM | TGI (MOLT-4 leukemia): > 100 µM | GI50 (NCI-H226 lung): 11 µM | TGI (NCI-H226 lung): 46.1 µM | GI50 (NCI-H23 lung): 27.6 µM | TGI (NCI-H23 lung): > 100 µM | GI50 (NCI-H460 lung): 32.3 µM | TGI (NCI-H460 lung): > 100 µM | GI50 (NCI-H522 lung): 25.7 µM | TGI (NCI-H522 lung): > 95.4 µM | GI50 (NCI/ADR-RES ovarian): 25.1 µM | TGI (NCI/ADR-RES ovarian): > 100 µM | GI50 (OVCAR-3 ovarian): 21.9 µM | TGI (OVCAR-3 ovarian): > 77.5 µM | GI50 (OVCAR-4 ovarian): 18 µM | TGI (OVCAR-4 ovarian): > 100 µM | GI50 (OVCAR-5 ovarian): 50.9 µM | TGI (OVCAR-5 ovarian): > 100 µM | GI50 (OVCAR-8 ovarian): 33.3 µM | TGI (OVCAR-8 ovarian): > 100 µM | GI50 (PC-3 prostate): 25.4 µM | TGI (PC-3 prostate): > 100 µM | GI50 (RPMI-8226 leukemia): 21.9 µM | TGI (RPMI-8226 leukemia): > 100 µM | GI50 (RXF 393 renal): 11.7 µM | TGI (RXF 393 renal): 64.9 µM | GI50 (SF-268 CNS): 28.1 µM | TGI (SF-268 CNS): > 100 µM | GI50 (SF-295 CNS): 24.2 µM | TGI (SF-295 CNS): > 100 µM | GI50 (SF-539 CNS): 7.5 µM | TGI (SF-539 CNS): 58.9 µM | GI50 (SK-MEL-2 melanoma): 17.2 µM | TGI (SK-MEL-2 melanoma): 47.8 µM | GI50 (SK-MEL-28 melanoma): 22.1 µM | TGI (SK-MEL-28 melanoma): > 100 µM | GI50 (SK-MEL-5 melanoma): 16 µM | TGI (SK-MEL-5 melanoma): 30.8 µM | GI50 (SK-OV-3 ovarian): 26.5 µM | TGI (SK-OV-3 ovarian): > 100 µM | GI50 (SN12C renal): 25.5 µM | TGI (SN12C renal): > 100 µM | GI50 (SNB-19 CNS): 48.4 µM | TGI (SNB-19 CNS): > 100 µM | GI50 (SNB-75 CNS): 1870 nM | TGI (SNB-75 CNS): > 100 µM | GI50 (SR leukemia): 26.1 µM | TGI (SR leukemia): > 100 µM | GI50 (SW-620 colon): 48.2 µM | TGI (SW-620 colon): > 100 µM | GI50 (T-47D breast): 17 µM | TGI (T-47D breast): > 88.5 µM | GI50 (TK-10 renal): 43.1 µM | TGI (TK-10 renal): > 100 µM | GI50 (U251 CNS): 39.1 µM | TGI (U251 CNS): > 100 µM | GI50 (UACC-257 melanoma): 28.8 µM | TGI (UACC-257 melanoma): 98.2 µM | GI50 (UACC-62 melanoma): 12.9 µM | TGI (UACC-62 melanoma): 48.4 µM | GI50 (UO-31 renal): 20 µM | TGI (UO-31 renal): > 100 µM
